These results are taken from patent US20040038824A1, “Agrochemical composition” (priority 2000, published 2004).

The test has as its system Wheat. As to the kind of experiment: Greenhouse test of the safener's protective action on wheat against herbicide damage (post-emergence tank mix). The class given is in vivo. The conditions noted are these: 2- to 3-leaf stage, tank mix with herbicide propynyl (R)-2[4-[(5-chloro-3-fluoro-2-pyridynyl]oxy-phenoxy]propanoate, 20 days post-application. An excerpt: Wheat seeds are sown in the greenhouse in plastic pots comprising 0.5 l of garden soil.

For the compound `CCCCCC(C)OC(=O)COc1ccc(Cl)c2cccnc12` (stereo not shown) [safener of the formula I, 1-methylhexyl (5-chloroquinolin-8-yloxy)acetate tetrahydrate], the “protective action of the safener in comparison with the plants treated with the herbicide only” value is “very effective”.
